From publication PMC6476176 (Ultrasound in medicine & biology, 2018)
Read-outs that look alike come from different tables or passages of the source.

Experiments:
[1] = Plasma T-20 concentration and pharmacokinetics in porcine model; format: in vivo, Yorkshire pigs; conditions: Yorkshire, pig, sc, 90 mg
[2] = Histological analysis of skin samples; format: in vivo, Yorkshire pigs; conditions: pig
[3] = cited from earlier work
[4] = T-20 subcutaneous injection twice daily 29 days, n=12

enfuvirtide
AUC(0-inf) [1]: 43300 ng·h/mL
Cmax [1]: 6310 ng/mL
half-life [1]: 3.97 h
tmax [1]: 2.5 h
Skin irritation: Major, number of Subjects ([2]; in vivo): 1
Skin irritation: Minor, number of Subjects ([2]; in vivo): 4
Skin irritation: None, number of Subjects ([2]; in vivo): 7
Skin irritation: Similar to Eczema, number of Subjects ([2]; in vivo): 1
Skin irritation: Major+ Necrosis, number of Subjects ([2]; in vivo, sc): 3
Skin irritation: Major, number of Subjects [2, 4]: 3
Skin irritation: Minor, number of Subjects [2, 4]: 3
Skin irritation: None, number of Subjects [2, 4]: 2
Skin irritation: Similar to Eczema, number of Subjects [2, 4]: 1
AUC∞ ([3]; human, in vivo): 55.8 (22%) μg·h/mL
Cmax ([3]; human, in vivo): 4.59 (32%) μg/mL
Tmax humans (median) ([3]; human, in vivo): 6.9 h
Tmax humans (range) ([3]; human, in vivo): 3 to 12 h
tmax ([3]; human, in vivo): 6.92 (36%) h
t½ ([3]; human, in vivo): 3.80 (15%) h
typical human plasma Ctrough ([3]; human, ref Usa, 2012): 3300 ± 1600 ng/mL
CI ([3]; in vivo): 1.68 (22%) L/h
